Earlier results on 6 molecules are cited in US4100185A, “Cyclohexanone 5,6-benzo analogues of prostaglandin E” (Miles Laboratories, Inc., priority 1977, dated 1978).

Series [1] relates to gastric secretion. To be noted: dogs.
Series [2] concerns gastric secretion. To be noted: man.
Another series has as its system growth hormone. Conditions: rats.
Another series has as its system blood platelets. To be noted: in vitro.
A further series concerns tracheal smooth muscle. Conditions: in vitro.
Another series has as its system adrenal glands. Conditions: hypophysectimized rats.
The subject of a further series is thyroid. Conditions: mice.
Series [3] relates to adrenergic nervie endings. Conditions: guinea pig.
The subject of series [4] is motor pathways in the central nervous system.
For series [5], the system named is ovarian progesterone secretion. To be noted: sheep.
Series [6] concerns female reproductive system. Conditions: in vivo.
The conditions of series [7]: variety of mammals.

“Also recorded” adds a separate entry of the source. Where two headings read alike, the source gives them in different places.

As to `CCCCC[C@H](O)/C=C/[C@H]1C=CC(=O)[C@@H]1CCCCCCC(=O)O` [PGA1], the results for the “effect on gastric secretion” value with gastric secretion [1] and in the series on gastric secretion [2] were “inhibit gastric secretion” and “exhibits similar activity in man”, respectively. In addition, the “effect on growth hormone” value in the series with growth hormone is reported as “increased synthesis of that hormone”.

`CCCCC[C@H](O)/C=C/[C@H]1[C@H](O)CC(=O)[C@@H]1CCCCCCC(=O)O` [PGE1, prostaglandin E1]: the “effect on gastric secretion” value in the series on gastric secretion [1] is listed as “inhibit gastric secretion”. Further, in the series with blood platelets, the effect on thrombogenesis result is given as “inhibits thrombogenesis in vitro”. In addition, in the series with tracheal smooth muscle, the “effect on tracheal smooth muscle” value is on record as “relax”. Also, the “effect on growth hormone” value in the series with growth hormone is “increase release of growth hormone”. Moreover, the “effect on steroidogenesis in the adrenal glands” value (shortened to “effect on steroidogenesis”) in the series on adrenal glands was “stimulate steriodogenesis in the adrenal glands”. Further, the “effect on thyroid activity” value in the series with thyroid is reported as “increase thyroid activity”. The “effect on transmitter release from adrenergic nerve endings” value in [3] was “inhibit transmitter release from adrenergic nervie endings”. Also, in series [4], the “effect on transmission in motor pathways” value is listed as “retards”. The “effect on ovarian progesterone secretion” value in [5] is listed as “inhibit ovarian progesterone secretion”.

For the molecule `CCCCC[C@H](O)/C=C/[C@H]1[C@H](O)CC(=O)[C@@H]1C/C=C\CCCC(=O)O` [PGE2], in the series on gastric secretion [1], the “effect on gastric secretion” value is “inhibit gastric secretion”. Further, the “effect on tracheal smooth muscle” value with tracheal smooth muscle is “relax”. Also, the “effect on growth hormone” value in the series with growth hormone is reported as “increase release of growth hormone”. Also, the “effect on steroidogenesis” value with adrenal glands is on record as “stimulate steriodogenesis in the adrenal glands”. In addition, the “effect on thyroid activity” value with thyroid is reported as “increase thyroid activity”. Moreover, the “effect on transmitter release from adrenergic nerve endings” value in series [3] was “inhibit transmitter release from adrenergic nervie endings”. Also, the “effect on fertility, gestation, labor” value in series [6] is reported as “exerts potent oxytocic effects in inducing labor”.

Regarding `CCCCC[C@H](O)/C=C/[C@@H]1[C@@H](CCCCCCC(=O)O)[C@@H](O)C[C@H]1O` [PGF1α], the luteolytic effect entry in series [7] is on record as “act as luteolytic factors”. Also, in the series on adrenal glands, the “effect on steroidogenesis” value is recorded as “stimulate steriodogenesis in the adrenal glands”. Further, the “effect on thyroid activity” value in the series with thyroid is on record as “increase thyroid activity”. The “effect on ovarian progesterone secretion” value in series [5] is listed as “inhibit ovarian progesterone secretion”.

With `CCCCC[C@H](O)/C=C/[C@@H]1[C@@H](CCCCCCC(=O)O)[C@H](O)C[C@H]1O` [PGF1β], in the series with thyroid, the “effect on thyroid activity” value is given as “increase thyroid activity”.

Regarding `CCCCC[C@H](O)/C=C/[C@@H]1[C@@H](C/C=C\CCCC(=O)O)[C@@H](O)C[C@H]1O` [PGF2α], in the series with tracheal smooth muscle, the “effect on tracheal smooth muscle” value is “contracts the smooth muscle”. Moreover, the “effect on fertility, gestation, labor” value in series [6] is listed as “has contragestational effects; also recorded: induces spontaneous abortions in early pregnancy”. Also, the “effect on transmission in motor pathways” value in series [4] is “facilitates transmission in motor pathways in the central nervous system”.
